Measurements as given in patent US8029770B2 (Rutgers, The State University, priority 2003, dated 2011).
Marks after values point to notes of the source that are not given here.

Test system: apoptotic sunburn cells in the epidermis of SKH-1 mice
Experiment: UVB-induced apoptotic sunburn cells in the epidermis of SKH-1 mice after topical application
Type: in vivo, mouse
Conditions: for activity in stimulating UVB-induced apoptosis in mouse skin, compared with caffeine: first study of compounds structurally related to caffeine, given after UVB; for Percent Apoptotic Sunburn Cells: 6.2 μmole in 100 μL acetone right after UVB 30 mJ/cm^2 and at 30 and 120 min, 6 h after UVB; for activity in stimulating UVB-induced apoptosis, compared with caffeine: similar study, acetone:water (90:10) as vehicle (Table 1)
Description: Chemicals and Animals. […] Female SKH-1 hairless mice (6 to 7 weeks old) were purchased from the Charles River Breeding Laboratories, and the animals were kept in an animal facility for at least one week before use at 7 to 8 weeks of age. Mice were given water and PURINA® Laboratory CHOW® 5001 diet from Ralston-Purina (St. […] For the analysis conducted herein, 5 mice were used per group. Treatment of Mice with UVB. […] The radiation was further calibrated with a model IL-1700 research radiometer/photometer (International Light, Newburyport, Mass.). Measurement of apoptotic sunburn cells. Identification of apoptoic sunburn cells was based morphologically on cell shrinkage and nuclear condensation due to fragmentation of the cells. […] Six hours after UVB, the animals were sacrificed and apoptotic sunburn cells in the epidermis were determined morphologically. […] Six hours after UVB, the animals were sacrificed and apoptotic sunburn cells in the epidermis were determined morphologically. […] Acetone Formulation. […] Six hours after UVB, the animals were sacrificed and apoptotic sunburn cells in the epidermis were determined morphologically. […] […] Formulations. […] Six hours after UVB the animals were sacrificed and apoptotic sunburn cells in the epidermis were determined morphologically. […] Six hours after UVB the animals were sacrificed and apoptotic sunburn cells in the epidermis were determined morphologically.

[1] = Table 1, vs acetone group, 6.2 μmole x3 after UVB 30 mJ/cm^2, 6 h

Compound	activity in stimulating UVB-induced apoptosis in mouse skin, compared with caffeine	Percent Apoptotic Sunburn Cells (mean ± S.E.)	% Induction [1] [%]	activity in stimulating UVB-induced apoptosis, compared with caffeine	further results
Cn1c(=O)c2ncn(C)c2n(C)c1=O [1,3,9-trimethylxanthine]	somewhat less active than caffeine	–	–	–	–
O=C([O-])c1ccccc1.[Na+] [Sodium benzoate, sodium benzoate]	–	–	–	–	Percent Sunburn Cells, UVB (6.2 μmole (each) in 100 μL acetone:water (9:1) immediately after UVB 30 mJ/cm^2 and at 30 and 120 min, 6 h, mean ± S.E.): 0.27 ± 0.08%; enhancement of UVB-induced apoptosis in the epidermis, applied in DERMABASE (DERMABASE vehicle, equimolar amounts (Table 4)): inactive; % Induction (Table 2, vs acetone, 6.2 μmole in acetone:water (9:1)): 29%
CC(=O)CCCCn1c(=O)c2c(ncn2C)n(C)c1=O [Pentoxifylline, pentoxifylline]	little or no activity	0.318 ± 0.068^ %	56	about half as active as caffeine	–
Cn1c(=O)[nH]c2ncn(C)c2c1=O [1,7-dimethylxanthine]	as active as caffeine	–	–	–	–
Cn1c(=O)c2c(ncn2C)n(C)c1=O [Caffeine Citrated, citrated caffeine]	–	0.757 ± 0.199^b %	271	–	–
Cn1c(=O)c2c(nc(Br)n2C)n(C)c1=O [8-bromocaffeine]	little or no activity	–	–	–	–
O=c1[nH]c(=O)c2[nH]cnc2[nH]1 [Xanthine, xanthine]	little or no activity	0.221 ± 0.046^ %	8	–	–
Cn1c(=O)c2[nH]cnc2n(C)c1=O [Theophylline, 1,3-dimethylxanthine]	as active as caffeine	0.703 ± 0.171^b %	245	somewhat more active than caffeine	–
Cn1c(=O)c2c(nc(Cl)n2C)n(C)c1=O [8-chlorocaffeine]	little or no activity	–	–	–	–
Cn1cnc2c1c(=O)[nH]c(=O)n2C [Theobromine, 3,7-dimethylxanthine]	little or no activity	0.358 ± 0.064^ %	75	about half as active as caffeine	–
